Data on 14 molecules can be found in US4356186A, “Acetic acid derivatives and composition containing the same” (priority 1980, dated 1982).

Data set [1] concerns carrageenin-induced hind paw edema. Briefly: Anti-inflammatory activity (carrageenin-induced hind paw edema in rats). It counts as in vivo, Male Wistar rats. The settings on record: for inhibition in vivo at 10 mg/kg / inhibition in vivo at 20 mg/kg / inhibition in vivo at 40 mg/kg / inhibition in vivo at 80 mg/kg / inhibition in vivo at 5 mg/kg / inhibition in vivo at 2 mg/kg / inhibition in vivo at 1 mg/kg / inhibition in vivo at 0.5 mg/kg: Rattus norvegicus, po; for inhibition in vivo at 10 mg/kg: 10 mg/kg p.o.; for inhibition in vivo at 20 mg/kg: 20 mg/kg p.o.; for inhibition in vivo at 40 mg/kg: 40 mg/kg p.o.; for inhibition in vivo at 80 mg/kg: 80 mg/kg p.o.; for anti-inflammatory activity compared with the known aspirin / anti-inflammatory activity compared with the known indomethacin: in words, from Table 1; for inhibition in vivo at 5 mg/kg: 5 mg/kg p.o.; for inhibition in vivo at 2 mg/kg: 2 mg/kg p.o.; for inhibition in vivo at 1 mg/kg: 1 mg/kg p.o.; for inhibition in vivo at 0.5 mg/kg: 0.5 mg/kg p.o. Here is the method: Anti-inflammatory activity (carrageenin-induced hind paw edema in rats)
The test was carried out in a similar manner as disclosed in Proc. Soc. Exptl.
Male Wistar rats, weighing 100-300 g, were used. A 1% aqueous carrageenin solution (0.1 ml) was administered subcutaneously into the hind foot pad of rats. Two and three hours after the carrageenin injection, the paw volume was measured and the swelling rate was calculated based on the paw volume before the carrageenin injection. The inhibitory rate was determined as compared with the average swelling rate of the control group to which only vehicle was administered. The test compounds were administered orally one hour before the carrageenin injection.

For the next data set, the system named is stomach ulcer. Briefly: Gastrointestinal ulcerogenicity. Set-up: key to Average score of stomach ulcer: ulcer score 1 to 4, 4 = most severe ulcer. It counts as in vivo, Male Wistar rats. The settings on record: for Number of rats having a score of stomach ulcer of 2 or more/total number of rats used / Average score of stomach ulcer: after 6 hours; for Average score of stomach ulcer: score 1 to 4. The protocol:
Gastrointestinal ulcerogenicity
The test was carried out in a similar manner as disclosed in Arzneim. Forsch., 19, 36 (1969).
Male Wistar rats, weighing 130-180 g, were used. After the rats were fasted for 24 hours, the test compound was orally administered one time. After 6 hours, the rats were killed and the stomach was removed. […] The degree of stomach ulcer was scored from 1 to 4, wherein 4 is the most severe ulcer. In Table 2, there are shown the average score of stomach ulcer in each dose and also the ratio of the number of rats having a score of stomach ulcer of 2 or more to total number of rats used.

Where [2] appears, read: 2 h, two hours, read-out: Inhibitory rate, two hours after the carrageenin injection.
[3] abbreviates: 3 h, three hours, read-out: Inhibitory rate, three hours after the carrageenin injection.

Read-outs that look alike come from different tables or passages of the source.

Turning to `CC(C(=O)O)c1ccc2c(c1)SCC1CCCCC1C2=O` (centres unmarked) [G, 2-(6,6a,7,8,9,10,10a,11-Octahydro-11-oxodibenzo[b,e]thiepin-3-yl)propionicacid-B], in data set [1] (setting [2]), the inhibition in vivo at 10 mg/kg was determined as 12%, the inhibition in vivo at 20 mg/kg is 18.3%, the inhibition in vivo at 40 mg/kg was 33.2% and the inhibition in vivo at 80 mg/kg came to 32.2%. In addition, in data set [1] (setting [3]), the inhibition in vivo at 10 mg/kg was 7.1%, the inhibition in vivo at 20 mg/kg was 11%, the inhibition in vivo at 40 mg/kg was 26.9% and the inhibition in vivo at 80 mg/kg was 30.2%. Also, the “anti-inflammatory activity compared with the known aspirin” value in data set [1] is on record as “comparable or superior to that of the known aspirin”.

For `CCOC(=O)C(C)c1ccc2c(c1)SCC1CCCCC1C2=O` (centres unmarked) [I, Ethyl 2-(6,6a,7,8,9,10,10a,11-octahydro-11-oxodibenzo[b,e]thiepin-3-yl)propionate], the results for the “Number of rats having a score of stomach ulcer of 2 or more/total number of rats used” value with stomach ulcer (8 mg/kg p.o.), with stomach ulcer (32 mg/kg p.o.) and with stomach ulcer (64 mg/kg p.o.) were 0/3, 0/6 and 3/6, respectively. In addition, the “Average score of stomach ulcer” value in the data set with stomach ulcer (8 mg/kg p.o.) is recorded as 0.00; in the data set with stomach ulcer (32 mg/kg p.o.), 0.33; in the data set with stomach ulcer (64 mg/kg p.o.) it was 1.00. Also, in the data set on stomach ulcer (in words, from Table 2), the “gastrointestinal ulcerogenicity compared with the known aspirin” value is listed as “far less gastrointestinal ulcerogenicity than the known aspirin”. The figures for the inhibition in vivo at 5 mg/kg in data set [1] (setting [2]) and in data set [1] (setting [3]) were 42.2% and 38.3%, respectively.

Consider `CC(C(=O)O)c1ccc2c(c1)C(=O)C1CCCCC1CS2` (centres unmarked) [D, 2-(6,6a,7,8,9,10,10a,11-Octahydro-11-oxodibenzo[b,e]thiepin-2-yl)propionicacid], for which, in data set [1] (setting [2]), the inhibition in vivo at 40 mg/kg was 28.6% and the inhibition in vivo at 80 mg/kg came to 34%. Also, in data set [1] (setting [3]), the inhibition in vivo at 40 mg/kg came out at 24.6% and the inhibition in vivo at 80 mg/kg was 27.1%. Besides, the “anti-inflammatory activity compared with the known aspirin” value in data set [1] is on record as “comparable or superior to that of the known aspirin”.

Take `CC(C(=O)OCC(=O)c1ccccc1)c1ccc2c(c1)SCC1CCCCC1C2=O` (centres unmarked) [M, Phenacyl 2-(6,6a,7,8,9,10,10a,11-octahydro-11-oxodibenzo[b,e]thiepin-3-yl)propionate]: the results for the inhibition in vivo at 5 mg/kg in data set [1] (setting [2]) and in data set [1] (setting [3]) were 33.2% and 26.6%, respectively.

In the case of `CCCCOC(=O)C(C)c1ccc2c(c1)SCC1CCCCC1C2=O` (centres unmarked) [J, Butyl 2-(6,6a,7,8,9,10,10a,11-octahydro-11-oxodibenzo[b,e]thiepin-3-yl)propionate], the “Number of rats having a score of stomach ulcer of 2 or more/total number of rats used” value with stomach ulcer (16 mg/kg p.o.) is on record as 0/3; in the data set with stomach ulcer (32 mg/kg p.o.), 3/6; in the data set with stomach ulcer (64 mg/kg p.o.) it was 3/6. Further, the entries for the “Average score of stomach ulcer” value with stomach ulcer (16 mg/kg p.o.), in the data set with stomach ulcer (32 mg/kg p.o.) and in the data set with stomach ulcer (64 mg/kg p.o.) were 0.33, 1.33 and 1.50, respectively. In addition, the results for the inhibition in vivo at 2 mg/kg in data set [1] (setting [2]) and in data set [1] (setting [3]) were 21.5% and 11.5%, respectively. For the same molecule, the values for the inhibition in vivo at 5 mg/kg in data set [1] (setting [2]) and in data set [1] (setting [3]) were 31.8% and 26%, respectively.

In the case of `O=C(O)Cc1ccc2c(c1)OCC1CCCCC1C2=O` (centres unmarked) [B, 6,6a,7,8,9,10,10a,11-Octahydro-11-oxodibenz[b,e]oxepin-3-acetic acid], the inhibition in vivo at 1 mg/kg in data set [1] (setting [2]) was 17.8%; in data set [1] (setting [3]) it was 7.8%. The “anti-inflammatory activity compared with the known indomethacin” value in data set [1] is “comparable or superior to that of the known indomethacin”.

As for `CC(C(=O)OCCN1CCOCC1)c1ccc2c(c1)SCC1CCCCC1C2=O` (centres unmarked) [Q, 2-Morpholinoethyl 2-(6,6a,7,8,9,10,10a,11-octahydro-11-oxodibenzo[b,e]thiepin-3-yl)propionate], in data set [1] (setting [2]), the inhibition in vivo at 2 mg/kg was 25.4% and the inhibition in vivo at 5 mg/kg came out at 28.9%. Moreover, in data set [1] (setting [3]), the inhibition in vivo at 2 mg/kg was 22.8% and the inhibition in vivo at 5 mg/kg is 22%.

Consider `C=CCOC(=O)C(C)c1ccc2c(c1)SCC1CCCCC1C2=O` (centres unmarked) [K, Allyl 2-(6,6a,7,8,9,10,10a,11-octahydro-11-oxodibenzo[b,e]thiepin-3-yl)propionate], for which, in data set [1] (setting [2]), the inhibition in vivo at 2 mg/kg came out at 27% and the inhibition in vivo at 5 mg/kg was found to be 34.3%. For the same molecule, in data set [1] (setting [3]), the inhibition in vivo at 2 mg/kg is 22.3% and the inhibition in vivo at 5 mg/kg was found to be 33.5%.

On to `CC(C(=O)O)c1ccc2c(c1)C(=O)C1CCCCC1CO2` (centres unmarked) [C, 2-(6,6a,7,8,9,10,10a,11-Octahydro-11-oxodibenz[b,e]oxepin-2-yl)propionicacid], for which the figures for the inhibition in vivo at 80 mg/kg in data set [1] (setting [2]) and in data set [1] (setting [3]) were 27.9% and 23.1%, respectively. Also, the “anti-inflammatory activity compared with the known aspirin” value in data set [1] is recorded as “comparable or superior to that of the known aspirin”.

For the molecule `O=C(O)Cc1ccc2c(c1)SCC1CCCCC1C2=O` (centres unmarked) [E, 6,6a,7,8,9,10,10a,11-Octahydro-11-oxodibenzo[b,e]thiepin-3-acetic acid], the inhibition in vivo at 2 mg/kg was determined as 26.3% in data set [1] (setting [2]) and 16.8% in data set [1] (setting [3]). In addition, the “anti-inflammatory activity compared with the known indomethacin” value in data set [1] was “comparable or superior to that of the known indomethacin”.

Consider `CC(C(=O)NO)c1ccc2c(c1)SCC1CCCCC1C2=O` (centres unmarked) [S, 2-(6,6a,7,8,9,10,10a,11-Octahydro-11-oxodibenzo[b,e]thiepin-3-yl)propionohydroxamic acid], for which, in data set [1] (setting [2]), the inhibition in vivo at 2 mg/kg was determined as 21.9% and the inhibition in vivo at 5 mg/kg came out at 31.5%. Moreover, in data set [1] (setting [3]), the inhibition in vivo at 2 mg/kg was found to be 18.5% and the inhibition in vivo at 5 mg/kg is 29.9%.

On to `CC(C(=O)OCCOCCO)c1ccc2c(c1)SCC1CCCCC1C2=O` (centres unmarked) [N, 2-(2-Hydroxyethoxy)ethyl 2-(6,6a,7,8,9,10,10a,11-octahydro-11-oxodibenzo[b,e]thiepin-3-yl)propionate], for which the inhibition in vivo at 2 mg/kg in data set [1] (setting [2]) was determined as 15.8%; in data set [1] (setting [3]) it was 13.2%. The inhibition in vivo at 5 mg/kg in data set [1] (setting [2]) amounted to 43.9%; in data set [1] (setting [3]), 28.1%.

Turning to `CC(C(=O)O)c1ccc2c(c1)OCC1CCCCC1C2=O` (centres unmarked) [A, 2-(6,6a,7,8,9,10,10a,11-Octahydro-11-oxodibenz[b,e]oxepin-3-yl)propionicacid], in data set [1] (setting [2]), the inhibition in vivo at 0.5 mg/kg turned out to be 23.7%, the inhibition in vivo at 1 mg/kg came to 34.3% and the inhibition in vivo at 2 mg/kg is 40.5%. In data set [1] (setting [3]), the inhibition in vivo at 0.5 mg/kg worked out at 17.4%, the inhibition in vivo at 1 mg/kg amounted to 26.9% and the inhibition in vivo at 2 mg/kg amounted to 32.6%. Further, in data set [1], the “anti-inflammatory activity compared with the known indomethacin” value is “comparable or superior to that of the known indomethacin”.

Take `CC(C(=O)NCC(=O)O)c1ccc2c(c1)SCC1CCCCC1C2=O` (centres unmarked) [T, N-Carboxymethyl-2-(6,6a,7,8,9,10,10a,11-octahydro-11-oxodibenzo[b,e]thiepin-3-yl)propionamide]: the inhibition in vivo at 2 mg/kg stood at 19.9% in data set [1] (setting [2]) and 15% in data set [1] (setting [3]). The figures for the inhibition in vivo at 5 mg/kg in data set [1] (setting [2]) and in data set [1] (setting [3]) were 43.9% and 28.1%, respectively.
